Data set [1] relates to HASMC. The data set is described as follows: Inhibition of PDGF-induced DNA synthesis in human HASMC assessed as decrease in [3H]thymidine incorporation after 20 hrs by microplate scintillation analysis. The data set is classed as functional, cell-based. In general terms: Dividing cells build labelled thymidine or BrdU into new DNA.
Data set [2] concerns HASMC. Nature of the data set: Cell cycle arrest in PGDF-stimulated human HASMC assessed as proportion of cells in S phase at 2 uM treated for 6 hrs prior to incubation with PDGF measured after 24 hrs by propidium iodide staining based flow cytometry (reference value: 20.8%). The data set is classed as functional. (A flow cytometer gives signals particle by particle.)
Data set [3] concerns HASMC. The data set is described as follows: Inhibition of PDGF-induced human HASMC migration at 4 uM after 24 hrs by modified boyden chamber analysis. The data set is classed as functional, cell-based.
The subject of data set [4] is HASMC. The data set is described as follows: Inhibition of PDGF-induced CDK4 expression in human HASMC at 2 to 4 uM after 24 hrs by Western blot analysis. The data set is classed as functional, cell-based. A general note: Immunoblotting shows a protein as a band on a membrane.
The test system of data set [5] is HASMC. Nature of the data set: Increase in p27 expression in PDGF-stimulated human HASMC at 2 to 4 uM after 24 hrs by Western blot analysis. The data set is classed as functional, cell-based.
For data set [6], the system named is HASMC. The data set is described as follows: Cell cycle arrest in PGDF-stimulated human HASMC assessed as proportion of cells in S phase at 4 uM treated for 6 hrs prior to incubation with PDGF measured after 24 hrs by propidium iodide staining based flow cytometry (reference value: 20.8%). The data set is classed as functional.
Data set [7] concerns HASMC. The data set is described as follows: Inhibition of PDGF-induced human HASMC proliferation after 24 hrs by trypan blue dye exclusion assay. Format: functional, cell-based.
In data set [8] the test system is HASMC. Nature of the data set: Cell cycle arrest in PGDF-stimulated human HASMC assessed as proportion of cells in S phase at 1 uM treated for 6 hrs prior to incubation with PDGF measured after 24 hrs by propidium iodide staining based flow cytometry (reference value: 20.8%). The data set is classed as functional.
Data set [9] concerns HASMC. Nature of the data set: Cytotoxicity against human HASMC assessed as effect on cell migration at 4 uM after 24 hrs by modified boyden chamber analysis. The data set is classed as cell-based.
Data set [10] concerns the target Platelet-derived growth factor receptor beta (Homo sapiens) (UniProt P09619). The data set is described as follows: Inhibition of PDGFRbeta in human HASMC assessed as decrease in PDGF-induced ERK1/2 phosphorylation at 1 to 4 uM after 5 to 15 mins by Western blot analysis.
In data set [11] the test system is HASMC. Nature of the data set: Cytotoxicity against human HASMC assessed as effect on cell vaibility at 0.5 to 4 uM after 24 hrs by MTT assay. The data set is classed as cell-based.
For data set [12], the system named is HASMC. The data set is described as follows: Increase in p21 expression in PDGF-stimulated human HASMC at 2 to 4 uM after 24 hrs by Western blot analysis. The data set is classed as functional, cell-based.
Data set [13] concerns HASMC. Nature of the data set: Inhibition of PDGF-induced cyclin D1 expression in human HASMC at 2 to 4 uM after 24 hrs by Western blot analysis. The data set is classed as functional, cell-based.
Data set [14] concerns HASMC. Nature of the data set: Inhibition of PDGF-induced actin filament dissociation in human HASMC at 2 to 4 uM after 24 hrs by Rhodamine-Phalloidin staining based fluorescence microscopy. The data set is classed as functional, cell-based.
For data set [15], the system named is HASMC. Nature of the data set: Inhibition of PDGF-induced CDK2 expression in human HASMC at 2 to 4 uM after 24 hrs by Western blot analysis. The data set is classed as functional, cell-based.
The subject of data set [16] is HASMC. The data set is described as follows: Inhibition of PDGF-induced cyclin E expression in human HASMC at 2 to 4 uM after 24 hrs by Western blot analysis. The data set is classed as functional, cell-based.
The target in data set [17] is Platelet-derived growth factor receptor beta (Homo sapiens) (UniProt P09619). The data set is described as follows: Inhibition of PDGFRbeta in human HASMC assessed as decrease in PDGF-induced Akt phosphorylation at 1 to 4 uM after 5 to 15 mins by Western blot analysis.
Chain of Platelet-derived growth factor receptor beta (Homo sapiens) (P09619 whole entry): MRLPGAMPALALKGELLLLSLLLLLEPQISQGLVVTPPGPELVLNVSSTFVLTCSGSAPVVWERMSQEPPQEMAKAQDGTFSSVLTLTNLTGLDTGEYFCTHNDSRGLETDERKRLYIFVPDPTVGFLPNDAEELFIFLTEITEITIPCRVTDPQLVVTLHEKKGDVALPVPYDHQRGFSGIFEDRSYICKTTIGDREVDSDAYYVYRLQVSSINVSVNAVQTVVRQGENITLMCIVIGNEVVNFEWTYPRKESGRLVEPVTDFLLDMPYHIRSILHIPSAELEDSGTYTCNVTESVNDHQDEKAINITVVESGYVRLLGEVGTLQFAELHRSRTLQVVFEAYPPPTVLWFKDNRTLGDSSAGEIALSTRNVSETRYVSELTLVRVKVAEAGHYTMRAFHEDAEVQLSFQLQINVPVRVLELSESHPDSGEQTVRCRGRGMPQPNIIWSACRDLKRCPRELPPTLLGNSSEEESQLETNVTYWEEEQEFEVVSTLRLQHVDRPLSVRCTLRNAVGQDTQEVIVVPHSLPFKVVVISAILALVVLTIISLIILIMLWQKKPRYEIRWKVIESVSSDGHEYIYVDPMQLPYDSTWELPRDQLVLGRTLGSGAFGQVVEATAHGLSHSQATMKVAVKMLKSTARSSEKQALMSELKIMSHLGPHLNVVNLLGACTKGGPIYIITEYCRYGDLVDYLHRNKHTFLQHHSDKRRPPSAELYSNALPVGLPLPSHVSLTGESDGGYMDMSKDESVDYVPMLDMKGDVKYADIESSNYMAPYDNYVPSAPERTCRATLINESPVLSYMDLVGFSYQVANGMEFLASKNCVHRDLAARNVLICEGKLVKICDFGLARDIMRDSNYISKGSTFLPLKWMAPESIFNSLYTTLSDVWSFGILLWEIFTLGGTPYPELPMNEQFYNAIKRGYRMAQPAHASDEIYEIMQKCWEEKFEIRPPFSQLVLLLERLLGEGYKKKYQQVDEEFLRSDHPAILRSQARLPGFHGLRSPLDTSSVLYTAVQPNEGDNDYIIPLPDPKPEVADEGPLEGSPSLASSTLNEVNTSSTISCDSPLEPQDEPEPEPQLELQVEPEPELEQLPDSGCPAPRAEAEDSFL
Data set [18] shares this target. The data set is described as follows: Inhibition of PDGFRbeta in human HASMC assessed as decrease in PDGF-induced PLC-gamma1 phosphorylation at 1 to 4 uM after 5 to 15 mins by Western blot analysis.
Data set [19] shares this target. Nature of the data set: Inhibition of PDGF-induced PDGFRbeta phosphorylation in human HASMC after 5 to 15 mins by Western blot analysis.

Active and inactive are the calls of the source. The rule behind the calls is not given here.

As to `CC(C)CCCCCC/C=C\CCCCCCC[C@H](O)[C@@H](O)[C@H](O)C#CC#CCO` [PETROSIOL B], in the data set on HASMC [1], the IC50 – broadly, the midpoint of a concentration-inhibition curve – stood at 710 nM and the inhibition result is “Dose-dependent effect”.

On to `CC(C)CCCCCCC#CCCCCCCCCC[C@@H](O)C#CC#CCO` [STRONGYLODIOL D], for which, in the data set with HASMC [1], the IC50 amounted to 2200 nM and the inhibition entry was “Dose-dependent effect”.

As to `C#C/C=C\CCCCCCCCCC/C=C\CCCCCCC[C@H](O)[C@@H](O)[C@H](O)C#CC#CCO` [PETROSIOL C], in the data set with HASMC [1], the IC50 stood at 720 nM and the inhibition entry is “Dose-dependent effect”.

As to `CCCCCCCC/C=C\CCCCCCC[C@H](O)[C@@H](O)[C@H](O)C#CC#CCO` [PETROSIOL A], the Activity in the data set with HASMC [2] is reported as 10.1%; with HASMC [6] it was 7.5%; in the data set with HASMC [8], 17.7%; in the data set on HASMC [9], “Non-toxic”; with HASMC [11] it was “Non-toxic”. For the same compound, the inhibition entry (in the data set on HASMC [3]; with HASMC [4]; in [10]; with HASMC [13]; with HASMC [14]; with HASMC [15]) was “Active” throughout. Further, the inhibition entry (in the data set on HASMC [16]; in [17]; in data set [18]) was “Active” each time. Moreover, the result with HASMC [5] and with HASMC [12] was Active. For the same compound, the IC50 is 1000 nM in the data set with HASMC [7] and 730 nM with HASMC [1]. Moreover, the inhibition result (in the data set on HASMC [7]; with HASMC [1]; in [19]) was “Dose-dependent effect” in each case.

Turning to `CC(C)CCCCCC/C=C\CCCCCCCCC[C@@H](O)C#CC#CCO` [STRONGYLODIOL C], in the data set on HASMC [1], the IC50 came out at 1100 nM and the inhibition entry is “Dose-dependent effect”.

Regarding `CCCCCCCCC/C=C\CCCCCCC[C@H](O)[C@@H](O)[C@H](O)C#CC#CCO` [PETROSIOL D], in the data set with HASMC [1], the IC50 amounted to 690 nM and the inhibition entry was “Dose-dependent effect”.
